Tests used:
[1] = target: Hog Brain Phosphodiesterase (PDE); assay: Inhibition of c-AMP hydrolysis by hog brain phosphodiesterase (PDE); assay type: biochemical; conditions: for Ki: Lineweaver-Burk plot slope and Dixon plot cross-point, read-out: Inhibition II: Inhibition Constant (Ki); for Inhibition I: Relative Inhibition: c-AMP 1.0, derivative 1.0 millimole/liter
Protocol: **PDE inhibition was evaluated based on the relative inhibition observed
when the sample compound was added at the same molar concentration as tha
of the substrate (1 millimole/liter) and the inhibition constant (ki)
calculated according to the enzymological method (Lineweaver-Burk plot).
The enzyme purification was conducted by ammonium sulfate fractionation and passage through DEAE cellulose column according to the modification of the method of T. S. Teo, T. T. Wang et al. (J. Biol. Chemi. 248, 585). […] Reaction and analysis were carried out as taught by Bucher and Sutherland [J. Biol. Chemi., 237, 1244 (1962)].
*: The values were calculated according the following equation: 100
containing no inhibitor.
**: Ki values were calculated from the slope of Lineweaver-Burk plot and
the cross-point of Dixon plot.?

CHO-Ki cells [2] = assay: Reverse transformation of cultured CHO-Ki cells (c-AMP level elevation, membrane permeability by L.R.C.); assay type: cell-based, Chinese hamster; conditions: for minimal effective concentration: Cricetulus griseus, microscopic analysis after 16 and 30 hours, read-out: L.R.C. (limiting reverse-transformable concentration)
Protocol: We utilized their test system and tested new derivatives as regards the following two properties:
The tests were conducted in the following manner according to the modification of the method of Hsie and Puck:
2. The membrane permeability was evaluated based on the reverse transformation. More specifically, new derivatives were added at a concentration of 10^-3, 5 × 10^-2, 10^-1, 2× 10^-1, 5 × 10^-1 or 1 millimole/liter to the above-mentionedmedium. After 16 and 30 hours, microscopic analysis was conducted, and the limiting reverse-transformable concentration (referred to as "L.R.C.") was determined and the membrane permeability was evaluated, based on the so determined L.R.C. value.
***The membrane permeability was determined based on the minimum
concentration causing the re-transformation of cultured CHO-Ki cells. (Th

[3] = tested on: Hog Brain Phosphodiesterase (PDE); assay: Inhibition of c-AMP hydrolysis by hog brain phosphodiesterase (PDE); assay type: biochemical; conditions: c-AMP 1.0, derivative 0.5 millimole/liter
CHO-Ki cells [4] = conditions: 10^-3 mole/liter; Hsie and Puck; cited from earlier work
[5] = tested on: Hog Brain Phosphodiesterase (PDE); conditions: Hsie and Puck; cited from earlier work
protein kinases = conditions: Hsie and Puck; cited from earlier work

Ki [1] | Inhibition I: Relative Inhibition [1] | Inhibition I: Relative Inhibition [3] | SMILES | minimal effective concentration (CHO-Ki cells [2]) | Toxic (remark at 10^-3 mole/liter) (CHO-Ki cells [2]) | reverse transformation of CHO-Ki (literature) (CHO-Ki cells [4]) | PDE inhibition (literature) [5] | protein kinase activation (literature) (protein kinases)
230 µM | 51.1% | – | CCCNc1nc2c(N)ncnc2n1[C@@H]1O[C@@H]2COP(=O)(O)O[C@H]2[C@H]1O [8-CH3 (CH2)2 NH-c-AMP, 8-n-propylamino-c-AMP] | – | – | – | – | –
78 µM | 60.1% | – | CCCSc1nc2c(N)ncnc2n1[C@@H]1O[C@@H]2COP(=O)(O)O[C@H]2[C@H]1O [8-CH3 (CH2)2 S-c-AMP, 8-n-propylmercapto-c-AMP] | ~400 µM | – | – | – | –
120 µM | 55.6% | – | CCCCNc1nc2c(N)ncnc2n1[C@@H]1O[C@@H]2COP(=O)(O)O[C@H]2[C@H]1O [8-CH3 (CH2)3 NH-c-AMP, 8-n-butylamino-c-AMP] | ~300 µM | – | – | – | –
74 µM | 64.3% | – | CCCCSc1nc2c(N)ncnc2n1[C@@H]1O[C@@H]2COP(=O)(O)O[C@H]2[C@H]1O [8-CH3 (CH2)3 S-c-AMP, 8-n-butylmercapto-c-AMP] | ~400 µM | – | – | – | –
72 µM | 62.3% | – | CCCCCNc1nc2c(N)ncnc2n1[C@@H]1O[C@@H]2COP(=O)(O)O[C@H]2[C@H]1O [8-CH3 (CH2)4 NH-c-AMP, 8-n-pentylamino-c-AMP] | – | – | – | – | –
40 µM | 76.7% | – | CCCCCSc1nc2c(N)ncnc2n1[C@@H]1O[C@@H]2COP(=O)(O)O[C@H]2[C@H]1O [8-CH3 (CH2)4 S-c-AMP, 8-n-amylmercapto-c-AMP] | 400 µM | – | – | – | –
58 µM | 76.1% | – | CCCCCCNc1nc2c(N)ncnc2n1[C@@H]1O[C@@H]2COP(=O)(O)O[C@H]2[C@H]1O [8-CH3 (CH2)5 NH-c-AMP, 8-n-hexylamino-c-AMP] | – | – | – | – | –
19 µM | 92.4% | – | CCCCCCSc1nc2c(N)ncnc2n1[C@@H]1O[C@@H]2COP(=O)(O)O[C@H]2[C@H]1O [8-CH3 (CH2)5 S-c-AMP, 8-n-hexylmercapto-c-AMP] | 300 µM | – | – | – | –
26 µM | 78.2% | – | CCCCCCCNc1nc2c(N)ncnc2n1[C@@H]1O[C@@H]2COP(=O)(O)O[C@H]2[C@H]1O [8-CH3 (CH2)6 NH-c-AMP, 8-n-heptylamino-c-AMP] | – | – | – | – | –
– | – | 90.4% | CCCCCCCSc1nc2c(N)ncnc2n1[C@@H]1O[C@@H]2COP(=O)(O)O[C@H]2[C@H]1O [8-CH3 (CH2)6 S-c-AMP, 8-n-heptylmercapto-c-AMP] | 300 µM | – | – | – | –
– | – | 80.0% | CCCCCCCCNc1nc2c(N)ncnc2n1[C@@H]1O[C@@H]2COP(=O)(O)O[C@H]2[C@H]1O [8-CH3 (CH2)7 NH-c-AMP, 8-n-octylamino-c-AMP] | – | – | – | – | –
16 µM | 95.0% | – | CCCCCCCCSc1nc2c(N)ncnc2n1[C@@H]1O[C@@H]2COP(=O)(O)O[C@H]2[C@H]1O [8-CH3 (CH2)7 S-c-AMP, 8-n-octylmercapto-c-AMP] | 20 µM | Toxic | – | – | –
27 µM | – | 71.3% | CCCCCCCCCNc1nc2c(N)ncnc2n1[C@@H]1O[C@@H]2COP(=O)(O)O[C@H]2[C@H]1O [8-CH3 (CH2)8 NH-c-AMP, 8-n-nonylamino-c-AMP] | – | – | – | – | –
31 µM | – | 74.9% | CCCCCCCCCSc1nc2c(N)ncnc2n1[C@@H]1O[C@@H]2COP(=O)(O)O[C@H]2[C@H]1O [8-CH3 (CH2)8 S-c-AMP, 8-n-nonylmercapto-c-AMP] | 10 µM | Toxic | – | – | –
82 µM | – | 67.6% | CCCCCCCCCCNc1nc2c(N)ncnc2n1[C@@H]1O[C@@H]2COP(=O)(O)O[C@H]2[C@H]1O [8-CH3 (CH2)9 NH-c-AMP, 8-n-decylamino-c-AMP] | ~80 µM | Toxic | – | – | –
46 µM | – | 68.2% | CCCCCCCCCCSc1nc2c(N)ncnc2n1[C@@H]1O[C@@H]2COP(=O)(O)O[C@H]2[C@H]1O [8-CH3 (CH2)9 S-c-AMP, 8-n-decylmercapto-c-AMP] | < 5 µM | Toxic | – | – | –
170 µM | – | 51.4% | CCCCCCCCCCCNc1nc2c(N)ncnc2n1[C@@H]1O[C@@H]2COP(=O)(O)O[C@H]2[C@H]1O [8-CH3 (CH2)10 NH-c-AMP, 8-n-undecylamino-c-AMP] | ~50 µM | Toxic | – | – | –
88 µM | 39.1% | – | CCCCCCCCCCCSc1nc2c(N)ncnc2n1[C@@H]1O[C@@H]2COP(=O)(O)O[C@H]2[C@H]1O [8-CH3 (CH2)10 S-c-AMP, 8-n-undecylmercapto-c-AMP] | < 5 µM | Toxic | – | – | –
660 µM | – | 18.3% | CCCCCCCCCCCCNc1nc2c(N)ncnc2n1[C@@H]1O[C@@H]2COP(=O)(O)O[C@H]2[C@H]1O [8-CH3 (CH2)11 NH-c-AMP, 8-n-dodecylamino-c-AMP] | ~70 µM | Toxic | – | – | –
140 µM | 26.4% | – | CCCCCCCCCCCCSc1nc2c(N)ncnc2n1[C@@H]1O[C@@H]2COP(=O)(O)O[C@H]2[C@H]1O [8-CH3 (CH2)11 S-c-AMP, 8-n-dodecylmercapto-c-AMP] | < 5 µM | Toxic | – | – | –
840 µM | – | 11.3% | CCCCCCCCCCCCCNc1nc2c(N)ncnc2n1[C@@H]1O[C@@H]2COP(=O)(O)O[C@H]2[C@H]1O [8-CH3 (CH2)12 NH-c-AMP, 8-n-tridecylamino-c-AMP] | ~90 µM | Toxic | – | – | –
210 µM | 47.6% | – | CNc1nc2c(N)ncnc2n1[C@@H]1O[C@@H]2COP(=O)(O)O[C@H]2[C@H]1O [8-CH3 NH-c-AMP, 8-methylamino-c-AMP, reference compound] | ~500 µM | – | – | – | –
470 µM | 38.9% | – | Nc1ncnc2c1nc(Br)n2[C@@H]1O[C@@H]2COP(=O)(O)O[C@H]2[C@H]1O [Example 8-Br-c-AMP, 8-bromo-c-AMP, reference compound] | ~200 µM | – | – | – | –
– | – | – | CCCC(=O)Nc1ncnc2c1ncn2[C@@H]1O[C@@H]2COP(=O)(O)O[C@H]2[C@H]1OC(=O)CCC [N^6,O^2' -dibutyryl-c-AMP] | – | – | reversely transformed from the epitherial form to the fibroblast form | inhibits PDE to elevate the intracellular c-AMP level | activate protein kinases
